Results taken from patent US20020090619A1, “Methods for identifying mitochondrial divalent cation transporters” (priority 2000, published 2002).

Columns and labels:
[1] = test system: yeast mitochondria; test: Membrane potential ΔΨ of isolated yeast mitochondria (safranin O); type: biochemical, Saccharomyces cerevisiae; settings: for effect on the depression of ΔΨ produced by ETH 129 plus Ca2+: 60 μM CaCl2, 3.6 μM ETH 129
Method: The yeast strain W303-1A (Saccharomyces cerevisiae) was grown aerobically at 30° C. in a medium containing 2% lactate, 1% yeast extract, 2% peptone, 0.05% dextrose, and 0.01% adenine at pH 5.0, and cells were harvested during the logarithmic phase (A600=1.8−2.2). Mitochondria were isolated from spheroplasts as previously described (Jung et al., 1997 J. Biol. Chem. 272:21104), except that 0.6 M sucrose was used in the homogenization medium instead of 0.6 M mannitol (Daum et al., 1982 J. Biol. Chem. 257:13028). The resulting preparations were maintained on ice and were suspended in 0.6 M mannitol 20 mM HEPES (K+) (pH 6.8), containing 0.75 mg/ml BSA and 0.1 mM EGTA. Protein concentration was determined by a reduced volume Biuret method in which 50 μl of the final preparation were solubilized by adding an equal volume of 10% deoxycholate (Na+), with 0.4 ml of Biuret reagent added to the resulting mixture. BSA was employed as the standard.
Unless otherwise noted, mitochondria were incubated at 1 mg protein/ml and at approximately 25° C. in a medium that contained 0.6 M mannitol, 10 mM Pi (K+), 10 mM Hepes (TEA+), pH 7.2, plus 1 mM ethanol as an oxidizable substrate. Compounds having a low solubility in water were added from stock solutions prepared in methanol or DMSO. Ca2+ transport and membrane potential were monitored using the indicating dyes antipyrylazo III (ΔA720-790) and safranin O (ΔA511-533), respectively (Akerman et al., 1976 FEBS Lett. 68:191; Scarpa et al., 1978 Biochem. 17:1378). An SLM Aminco DW-2C spectrophotometer operated in the dual wavelength mode was employed for these purposes. The same instrument, operated in split beam mode, was used to monitor mitochondrial swelling as a decrease in apparent absorbance of mitochondrial suspensions at 540 nm. Oxygen consumption data were obtained using a Clark-type electrode in parallel experiments. Atomic absorption spectroscopy was utilized to monitor the transport of other cations by yeast mitochondria. Briefly, samples were taken at appropriate times and the mitochondria were rapidly sedimented in a microcentrifuge. After carefully removing supernatants, the pellets were solubilized with 2 N percholoric acid (overnight) and centrifuged a second time. The resulting supernatants were diluted with an appropriate volume of distilled water and the concentration of the cation in question was subsequently determined.

[2] = ETH 129 mediated cation transport into Quin-2 loaded POPC vesicles; type: biochemical; settings: 1.0 mM CaCl2, no Val, FIG. 5
Method: Unilamellar vesicles loaded with Quin-2 were prepared from 1-palmitoyl-2-oleoyl-sn-glycerophosphatidylcholine (POPC) by freeze-thaw extrusion (Erdahl et al., 1994 Biophys. J. 66:1678; Erdahl et al., 1995 Biophys. J. 69:2350). The formation medium contained 5 mM Quin-2 (K+), 10 mM Hepes (K+), pH 7.00, and 100 mM KCl. A high internal K+ concentration was sought to allow the generation of membrane potentials of varying magnitude (see below). The preparations obtained were applied to Sephadex™ G-50 mini-columns (Pharmacia, Piscataway N.J.) and eluted by low speed centrifugation (Fry et al., 1978 Anal. Biochem. 90:809), to replace the external medium with a 10 mM Hepes buffer (Na+), pH 7.00 (Erdahl et al., 1994 Biophys. J. 66:1678; Erdahl et al., 1995 Biophys. J. 69:2350). The nominal concentration of POPC in final preparations was determined as lipid phosphorus (Bartlett, 1959 J Biol. Chem. 234:466) and was near 80 mM. The average diameter of these vesicles was 71 nm as determined by freeze-fracture electron microscopy (Chapman et al., 1990 Chem. Phys. Lipids 55:73). They contained entrapped K+ at approximately 125 mM, as determined by atomic absorption spectroscopy, and Quin-2 at approximately 6 mM. The latter value was determined by titrating lysed vesicles with a standard solution of CaCl2 and was about one third of the expected value (Erdahl et al., 1995 Bipohys. J. 69:3250). The high solute level in the formation medium reduced the efficiency of Quin-2 entrapment by reducing the effectiveness of a freeze-thaw driven solute concentrating mechanism that normally elevates the internal concentrations of solutes, relative to the external medium (Chapman et al., 1990 Chem. Phys. Lipids 55:73; Chapman et al., 1990 Chem. Phys. Lipids 60:201).
POPC vesicles containing Quin-2 were utilized at a nominal phospholipid concentration of 1.0 mM, and at 25° C. The external medium contained polyvalent cation salts as described below, 100 mM NaCl, or mixtures of NaCl and KCl totaling […], and 10 mM Hepes, pH 7.00, unless otherwise noted. The medium pH was adjusted with NaOH that had been passed over Chelex 100 columns to remove contaminating cations (Erdahl et al., 1994 Biophys. J. 66:1678). In most cases an inside negative membrane electrical potential was present during the experiments. This was generated by the presence of 0.5 μM valinomycin (Val), which transports K+ out of the vesicles electrogenically (Erdahl et al., 1994 Biophys. J. 66:1678). The magnitude of the potential was controlled by varying the concentration ratio of Na+ to K+ in the external medium. A TPP+electrode was used to measure the potential (Broekemeier et al, 1998 Biochem. 37:13059), and thereby to verify that the calculated values were obtained. For these purposes the incubation medium contained 2.0 μM TPP.Cl and the entrapped volume was taken to be 2.02 μl/ml at a nominal POPC concentration of 1.0 mM (Chapman et al., 1990 Chem. Phys. Lipids 55:73).
Val was omitted when an imposed membrane potential was not desired, or in some cases 5 μM of the protonophore carbonyl cyanide m-chlorophenylhydrazone (CCP) was present instead of Val.
The transport of polyvalent cations was monitored by difference absorbance measurements which detected formation of the Quin-2:cation complex within the vesicle lumen. An Aminco DW2a spectrophotometer operated in the dual wavelength mode was employed. In addition, an Oriel No. 59800 band pass filter was used between the cuvette and the beam scrambler-photomultiplier assembly to prevent detection of the fluorescent light emitted by Quin-2. The sample wavelength for all cations was 264 nm. The reference wavelengths were at an isosbestic point in the Quin-2/Quin-2:cation complex difference spectrum of interest. These wavelengths varied slightly from cation to cation, as previously described (Erdahl et al., 1996 Biochem. 35:13817). […]

[3] = test system: isolated yeast mitochondria; test: Ca2+ transport in isolated yeast mitochondria expressing aequorin (luminescence); type: biochemical, Saccharomyces cerevisiae; settings: for Rate of increase in matrix Ca^2+ concentration / % of Control: external free Ca^2+ 0.8 μM, agent 1 μM; for Rate of increase in matrix Ca^2+ concentration: triplicate; for % of Control: rate of increase in matrix Ca^2+
Method: For preculture, the transformant was inoculated into 50 ml of SC-U plus 2% glucose, and incubated in an air shaker at 180 rpm and 30° C. At 24 hr, the preculture was transferred to 500 ml of a medium containing 1% yeast extract, 2% peptone, 2% lactate, 1% galactose, 0.012% adenine, pH 5 w/NaOH, and growth was continued under conditions which were otherwise the same. Cells were harvested after an additional 24 hr, spheroplasts were prepared using zymolyase, and mitochondria were isolated by the method of Daum et al. (1982) as previously described (Jung et al., 1997). The final pellet was resuspended at ˜20 mg protein/ml in 0.6 M mannitol, 20 mM HEPES (K^+ salt, pH 6.8). Apoaequorin in the intact or disrupted mitochondria was reconstituted by incubation with coelenterazine as described above for cells.
For most experiments, the mitochondria were present at 0.4 mg protein/ml in a standard medium that contained 0.3 M KCl, 20 mM HEPES, (K^+ salt, pH 7.10), 10 mM KH2PO4, 2 mM EGTA, and 2 mM MgCl2. Other additions are described in greater detail below. Ca^2+ buffers were formed by adding various amounts of CaCl2 to this EGTA containing medium. The free Ca^2+ concentrations which resulted were calculated using a computer program (Brooks et al., 1992 Anal. Biochem. 201:119).
Luminescence measurements were carried out in 6×50 mm culture tubes, using a total volume of 0.3 ml, and were started by injection of 5-20 μl of mitochondria or cells. A SAI model 3000 integrating photometer was employed, with AJD sampling at 0.4 seconds intervals driven by Asyst software. Values were transformed into corresponding Ca^2+ concentrations by computer assisted calculations based upon published calibration methods (Allen et al., 1977 Science 195:996; Brini et al., 1995 J. Biol. Chem. 270:9896). For each value, the ratio of observed luminescence (L) to the potential luminescence remaining (Lmax) was calculated, and compared to a calibration curve which relates this ratio to the free Ca^2+ concentration. Thus, complete calibrated progress curves were generated. The total luminescence available initially (Ltotal) must be known and was determined in separate experiments, wherein a saturating Ca^2+ concentration (20 μM) is employed to discharge the aequorin completely. This value allows Lmax to be calculated at any time, as Ltotal minus the sum of luminescence that already occurred.
The calibration data were obtained at an ionic strength of 335 mM and in the presence of 1 mM Mg^2+, to mimic conditions in the mitochondrial matrix, because both factors influence the affinity of aequorin for Ca2+ (Cobbold et al., 1987 Biochem. J. 248:313). Luminescence values were corrected for low background values that are obtained when Ca^2+ is absent before conducting further calculations.

[4] = test system: intact yeast; test: Aequorin luminescence in intact yeast cells expressing mitochondrially targeted aequorin; type: cell-based, Saccharomyces cerevisiae; settings: intact cells, FIG. 19B
Method: Yeast cells (strain X4003-5B; leu2, ade1, his4, met2, ura3, trp5, gal1) obtained from the Yeast Genetic Stock Center (Berkeley, Calif.) were transformed with the pYES2 plasmid, encoding the human mitochondrially targeted apoaequorin fragment, using the lithium acetate method (Sambrook et al., 1989), and INVSc1 cells were transformed with the pGK plasmid encoding the yeast mitochondrially targeted apoaequorin fragment. Selection was carried out on plates prepared with synthetic complete medium minus uracil (SC-U) (Sherman, 1991 Meths. Enzymol. 194:3). Transformed colonies were cultured in a small volume of SC-U and assayed for aequorin activity in vitro as described by Nakajima et al. (1991 Proc. Nat. Acad. Sci. USA 88:6878). Briefly, the cells were harvested by centrifugation, resuspended in lysis buffer (50 mM Tris, 2 mM EDTA, 0.5 mM PMSF, pH 8 w/NaOH), disrupted by vortexing with glass beads, and then treated with 0.1% Triton X-100 to release apoaequorin from the mitochondria. Following centrifugation, 200 μl aliquots of the supernatants were incubated with coelenterazine (2.5 μM) and 2-mercaptoethanol (2 μl), for ˜3 hr while standing on ice, to form the luminescent aequorin from its apoprotein. The coelenterazine cofactor is highly hydrophobic and readily permeates yeast cell membranes (Nakajima et al., 1991) such that reconstitution was conducted without disrupting the cells in some cases. 2-mercaptoethanol was omitted when intact cells were employed. A transformant which yielded high luminescence (named X4003-5B-AEQmito1) was selected for further characterization.
For preculture, the transformant was inoculated into 50 ml of SC-U plus 2% glucose, and incubated in an air shaker at 180 rpm and 30° C. At 24 hr, the preculture was transferred to 500 ml of a medium containing 1% yeast extract, 2% peptone, 2% lactate, 1% galactose, 0.012% adenine, pH 5 w/NaOH, and growth was continued under conditions which were otherwise the same. […]
Luminescence measurements were carried out in 6×50 mm culture tubes, using a total volume of 0.3 ml, and were started by injection of 5-20 μl of mitochondria or cells. […] For each value, the ratio of observed luminescence (L) to the potential luminescence remaining (Lmax) was calculated, and compared to a calibration curve which relates this ratio to the free Ca^2+ concentration. […] The total luminescence available initially (Ltotal) must be known and was determined in separate experiments, wherein a saturating Ca^2+ concentration (20 μM) is employed to discharge the aequorin completely. This value allows Lmax to be calculated at any time, as Ltotal minus the sum of luminescence that already occurred. […]

Compound | influence on activity of the transporter in yeast mitochondria [3] | Rate of increase in matrix Ca^2+ concentration [3] | % of Control [3] [%] | also measured
O=C(O)CN(CCOCCOCCN(CC(=O)O)CC(=O)O)CC(=O)O [EGTA] |  |  |  | effect on the depression of ΔΨ produced by ETH 129 plus Ca2+ [1]: reversed
C[C@H](CCC(=O)O)C[C@H](C)C[C@H](C)C(=O)/C=C(\O)[C@H](C)C[C@H](C)C/C=C/[C@@H](C)[C@@H](O)[C@@H](C)[C@@H](O)C[C@@H]1CC[C@@](C)([C@H]2CC[C@@](C)([C@@H](C)O)O2)O1 [ionomycin] |  |  |  | effect on ΔΨ, ionophore together with Ca2+ ([1]; BSA absent, CaCl2 plus ionophore, FIG. 11C): not duplicated
N#CC(C#N)=NNc1cccc(Cl)c1 [CCP, carbonyl cyanide m-chlorophenylhydrazone] |  |  |  | activation of ETH 129 mediated Ca2+ transport [2]: rate enhancement increasing progressively as the CCP concentration rose to 5 μM
CO[C@@H]1C[C@@H](C[C@H]2CC[C@H](C)[C@H]([C@@H](C)C(=O)O)O2)O[C@]2(O[C@](C)([C@H]3CC[C@@](C)([C@@H]4O[C@@H]([C@H]5O[C@@](O)(CO)[C@H](C)C[C@@H]5C)C[C@@H]4C)O3)C[C@H]2C)[C@@H]1C [Nigericin] | not influenced | 2.17 ± .12 nM/s | 111 | 
C=C1[C@@H]2CC[C@H]3[C@]4(C)C[C@H](O[C@@H]5O[C@H](CO)[C@@H](OS(=O)(=O)O)[C@H](OS(=O)(=O)O)[C@H]5OC(=O)CC(C)C)CC(C(=O)O)(C(=O)O)[C@H]4CC[C@]3(C2)[C@H]1O [carboxyatractyloside] |  |  |  | effect on the depression of ΔΨ produced by ETH 129 plus Ca2+ [1]: no effect
N.N.N.N.N.N.N.N.N.N.N.N.N.N.[Cl-].[Cl-].[Cl-].[Cl-].[Cl-].[Cl-].[O-2].[O-2].[Ru+3].[Ru+3].[Ru+4] [Ruthenium red] | not influenced | 2.21 ± .23 nM/s | 113 | 
coelenterazine n |  |  |  | luminescence intensity as aequorin cofactor vs parent coelenterazine [4]: comparable to that of the parent
CC(C)[C@@H]1NC(=O)[C@H](C)OC(=O)[C@@H](C(C)C)NC(=O)[C@@H](C(C)C)OC(=O)[C@H](C(C)C)NC(=O)[C@H](C)OC(=O)[C@@H](C(C)C)NC(=O)[C@@H](C(C)C)OC(=O)[C@H](C(C)C)NC(=O)[C@H](C)OC(=O)[C@@H](C(C)C)NC(=O)[C@@H](C(C)C)OC1=O [Valinomycin] | not influenced | 2.32 ± .31 nM/s | 118 | 
